Results published in patent publication US11691949B2, “Quinoline sulfonamide compounds and their use as antibacterial agents” (OTAGO INNOVATION LIMITED, priority 2017, dated 2023).
Converted amounts (≈) assume the structure as drawn. Read-outs that look alike come from different tables or passages of the source.

Legend:
Assay type in all cases: cell-based
S. uberis ATCC 19436 = assay: MIC by broth microdilution, S. uberis; conditions: Streptococcus uberis, read-out: S. uberis ATCC 19436 MIC
In short: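 This broth microdilution assay used S. uberis ATCC 19436 in Todd Hewitt Broth, with zinc sulphate heptahydrate added where required to a final 50 μM. Inhibitor concentration ranges came from two-fold serial dilutions in 96-well flat bottom plates at 200 μl. Approximately 5×10^5 cfu/mL cells were incubated for 24 h at 37° C. and 200 rpm. Wells were then read at OD600 on a Varioskan Flash reader.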

S. aureus ATCC 6538 = assay: MIC by broth microdilution, S. aureus; conditions: Staphylococcus aureus, read-out: S. aureus ATCC 6538 MIC
In short: (§1)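 Overnight cultures diluted to ~5×10^5 cfu/mL final; S. aureus in TSB and CAMHB, E. coli in LB and CAMHB, zinc sulphate to 50 μM final as required; two-fold serial dilutions. MIC = lowest concentration with no growth by OD600 after 24 h, 37° C, 200 rpm. MBC by Miles-Misra drop-plate viability count.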

E. coli ATCC 10596 = assay: MIC by broth microdilution, E. coli; conditions: Escherichia coli, read-out: E. coli ATCC 10536 MIC
In short: as §1

[1] = ATCC 10536 / ATCC 10596, No Zinc
[2] = ATCC 10536 / ATCC 10596, Zinc (50 μM)

Row | Structure (SMILES) | MIC (S. uberis ATCC 19436; ATCC19436, No Zinc) [µg/mL] | MIC (S. uberis ATCC 19436; ATCC19436, Zinc (50 μM)) [µg/mL] | MIC (S. aureus ATCC 6538; ATCC6538, No Zinc) [µg/mL] | MIC (S. aureus ATCC 6538; ATCC6538, Zinc (50 μM)) [µg/mL] | MIC (E. coli ATCC 10596; [1]) [µg/mL] | MIC (E. coli ATCC 10596; [2]) [µg/mL]
1 | NC(=O)N/N=C/c1ccc2cccc(NS(=O)(=O)c3ccc(C(F)(F)F)cc3)c2n1 [ZDR118, (E)-2-((8-((4-(Trifluoromethyl)phenyl)sulfonamido)quinolin-2-yl)methylene)hydrazine-1-carboxamide] | 32 (≈ 73.2 µM) | 2 (≈ 4.57 µM) | 128 (≈ 293 µM) | 8 (≈ 18.3 µM) | > 256 | > 256
2 | CO/N=C/c1ccc2cccc(NS(=O)(=O)c3ccc(C(F)(F)F)cc3)c2n1 [ZDR126, (E)-N-(2-((Methoxyimino)methyl)quinolin-8-yl)-4-(trifluoromethyl)benzenesulfonamide] | > 256 | 0.125 (≈ 0.305 µM) | > 256 | > 256 | > 256 | > 256
3 | O=S(=O)(Nc1cccc2ccc(CNCCOCCO)nc12)c1ccc(C(F)(F)F)cc1 [ZDR129, N-(2-(((2-(2-Hydroxyethoxy)ethyl)amino)methyl)quinolin-8-yl)-4-(trifluoromethyl)benzenesulfonamide] | 64 (≈ 136 µM) | 1 (≈ 2.13 µM) | 32 (≈ 68.2 µM) | 32 (≈ 68.2 µM) | 256 (≈ 545 µM) | 256 (≈ 545 µM)
4 | O=S(=O)(Nc1cccc2ccc(CNCCOCCOCCO)nc12)c1ccc(C(F)(F)F)cc1 [ZDR130, N-(2-(((2-(2-(2-Hydroxyethoxy)ethoxy)ethyl)amino)methyl)quinolin-8-yl)-4-(trifluoromethyl)benzenesulfonamide] | 64 (≈ 125 µM) | 1 (≈ 1.95 µM) | 128 (≈ 249 µM) | 256 (≈ 499 µM) | 256 (≈ 499 µM) | 256 (≈ 499 µM)
5 | COCCOCCNCc1ccc2cccc(NS(=O)(=O)c3ccc(C(F)(F)F)cc3)c2n1 [ZDR131, N-(2-(((2-(2-Methoxyethoxy)ethyl)amino)methyl)quinolin-8-yl)-4-(trifluoromethyl)benzenesulfonamide] | 64 (≈ 132 µM) | 1 (≈ 2.07 µM) | 64 (≈ 132 µM) | 128 (≈ 265 µM) | 256 (≈ 529 µM) | 256 (≈ 529 µM)
6 | COCCOCCOCCNCc1ccc2cccc(NS(=O)(=O)c3ccc(C(F)(F)F)cc3)c2n1 [ZDR132, N-(2-(5,8,11-Trioxa-2-azadodecyl)quinolin-8-yl)-4-(trifluoromethyl)benzenesulfonamide] | 64 (≈ 121 µM) | 1 (≈ 1.9 µM) | 64 (≈ 121 µM) | 256 (≈ 485 µM) | 256 (≈ 485 µM) | 256 (≈ 485 µM)
7 | COCCNCc1ccc2cccc(NS(=O)(=O)c3ccc(C(F)(F)F)cc3)c2n1 [ZDR133, N-(2-(((2-Methoxyethyl)amino)methyl)quinolin-8-yl)-4-(trifluoromethyl)benzenesulfonamide] | 64 (≈ 146 µM) | 0.25 (≈ 0.569 µM) | 64 (≈ 146 µM) | 256 (≈ 583 µM) | > 256 | 256 (≈ 583 µM)
8 | CC(C)(C)NCc1ccc2cccc(NS(=O)(=O)c3ccc(C(F)(F)F)cc3)c2n1 [ZDR135, N-(2-((tert-Butylamino)methyl)quinolin-8-yl)-4-(trifluoromethyl)benzenesulfonamide] | 128 (≈ 293 µM) | 0.25 (≈ 0.571 µM) | 32 (≈ 73.1 µM) | 64 (≈ 146 µM) | > 256 | > 256
9 | CC(C)N(Cc1ccc2cccc(NS(=O)(=O)c3ccc(C(F)(F)F)cc3)c2n1)C(C)C [ZDR136, N-(2-((Diisopropylamino)methyl)quinolin-8-yl)-4-(trifluoromethyl)benzenesulfonamide] | > 256 | 8 (≈ 17.2 µM) | > 256 | > 256 | > 256 | > 256
10 | O=S(=O)(Nc1cccc2ccc(/C=N/OCc3ccccc3)nc12)c1ccc(C(F)(F)F)cc1 [ZDR137, (E)-N-(2-(((Benzyloxy)imino)methyl)quinolin-8-yl)-4-(trifluoromethyl)benzenesulfonamide] | > 256 | 0.125 (≈ 0.257 µM) | > 256 | > 256 | > 256 | > 256
11 | O=S(=O)(Nc1cccc2ccc(/C=N/NCc3ccccc3)nc12)c1ccc(C(F)(F)F)cc1 [ZDR138, (E)-N-(2-((2-Benzylhydrazineylidene)methyl)quinolin-8-yl)-4-(trifluoromethyl)benzenesulfonamide] | > 256 | 0.5 (≈ 1.03 µM) | 128 (≈ 264 µM) | 128 (≈ 264 µM) | > 256 | > 256
12 | CC(C)(C)OC(=O)N=C(NCCNCc1ccc2cccc(NS(=O)(=O)c3ccc(C(F)(F)F)cc3)c2n1)NC(=O)OC(C)(C)C [ZDR139, N-(2-(((N,N′-Bis-Boc-2-Guanidinoethyl)amino)methyl)quinolin-8-yl)-4-(trifluoromethyl)benzenesulfonamide] | 64 (≈ 96 µM) | 0.125 (≈ 0.187 µM) | 256 (≈ 384 µM) | 256 (≈ 384 µM) | > 256 | > 256

Second part, the compound after the results:

Row | MIC (S. uberis ATCC 19436; ATCC19436, No Zinc) [µg/mL] | MIC (S. uberis ATCC 19436; ATCC19436, Zinc (50 μM)) [µg/mL] | MIC (S. aureus ATCC 6538; ATCC6538, No Zinc) [µg/mL] | MIC (S. aureus ATCC 6538; ATCC6538, Zinc (50 μM)) [µg/mL] | MIC (E. coli ATCC 10596; [1]) [µg/mL] | MIC (E. coli ATCC 10596; [2]) [µg/mL] | Structure (SMILES)
13 | > 256 | > 256 | 64 (≈ 125 µM) | 128 (≈ 250 µM) | 128 (≈ 250 µM) | 256 (≈ 501 µM) | N/C(=N\[N+](=O)[O-])NCCNCc1ccc2cccc(NS(=O)(=O)c3ccc(C(F)(F)F)cc3)c2n1 [ZDR145, (E)-N-(2-(((2-(2-Nitroguanidino)ethyl)amino)methyl)quinolin-8-yl)-4-(trifluoromethyl)benzenesulfonamide]
14 | 64 (≈ 137 µM) | 1 (≈ 2.14 µM) | 64 (≈ 137 µM) | 128 (≈ 274 µM) | 128 (≈ 274 µM) | 256 (≈ 549 µM) | CC(=O)NCCNCc1ccc2cccc(NS(=O)(=O)c3ccc(C(F)(F)F)cc3)c2n1 [ZDR148, N-(2-(((8-((4-(Trifluoromethyl)phenyl)sulfonamido)quinolin-2-yl)methyl)amino)ethyl)acetamide]
15 | > 256 | 0.5 (≈ 1.22 µM) | 64 (≈ 157 µM) | 64 (≈ 157 µM) | > 256 | > 256 | CN/N=C/c1ccc2cccc(NS(=O)(=O)c3ccc(C(F)(F)F)cc3)c2n1 [ZDR153, (E)-N-(2-((2-Methylhydrazineylidene)methyl)quinolin-8-yl)-4-(trifluoromethyl)benzenesulfonamide]
16 | > 256 | 16 (≈ 38 µM) | > 256 | > 256 | > 256 | > 256 | CN(C)Cc1ccc2cccc(NS(=O)(=O)c3ccc(S(N)(=O)=O)cc3)c2n1 [ZDR154, N-(2-((Dimethylamino)methyl)quinolin-8-yl)benzene-1,4-disulfonamide]
17 | > 256 | > 256 | > 256 | > 256 | > 256 | > 256 | CN(C)Cc1ccc2cccc(NS(=O)(=O)c3cccc(S(N)(=O)=O)c3)c2n1 [ZDR155, N-(2-((Dimethylamino)methyl)quinolin-8-yl)benzene-1,3-disulfonamide]
18 | 256 (≈ 718 µM) | > 256 | > 256 | > 256 | > 256 | > 256 | CN(C)Cc1ccc2cccc(NS(=O)(=O)c3ccc(N)cc3)c2n1 [ZDR160, 4-Amino-N-(2-((dimethylamino)methyl)quinolin-8-yl)benzenesulfonamide]
19 | 256 (≈ 718 µM) | 16 (≈ 44.9 µM) | > 256 | > 256 | > 256 | > 256 | CN(C)Cc1ccc2cccc(NS(=O)(=O)c3cccc(N)c3)c2n1 [ZDR162, 3-Amino-N-(2-((dimethylamino)methyl)quinolin-8-yl)benzenesulfonamide]
20 | > 256 | 8 (≈ 22.4 µM) | > 256 | > 256 | > 256 | > 256 | CN(C)Cc1ccc2cccc(NS(=O)(=O)c3cccc(O)c3)c2n1 [ZDR163, N-(2-((Dimethylamino)methyl)quinolin-8-yl)-3-hydroxybenzenesulfonamide]
21 | > 256 | > 256 | > 256 | > 256 | > 256 | > 256 | CN(C)Cc1ccc2cccc(NS(=O)(=O)c3ccc(O)cc3)c2n1 [ZDR164, N-(2-((Dimethylamino)methyl)quinolin-8-yl)-4-hydroxybenzenesulfonamide]
22 | > 256 | 0.5 (≈ 1.31 µM) | 4 (≈ 10.5 µM) | 4 (≈ 10.5 µM) | > 256 | > 256 | O=S(=O)(Nc1cccc2ccc(CO)nc12)c1ccc(C(F)(F)F)cc1 [ZDR176, N-(2-(Hydroxymethyl)quinolin-8-yl)-4-(trifluoromethyl)benzenesulfonamide]
23 | > 256 | 0.5 (≈ 0.995 µM) | 64 (≈ 127 µM) | 256 (≈ 509 µM) | 128 (≈ 255 µM) | > 256 | CS(=O)(=O)NCCNCc1ccc2cccc(NS(=O)(=O)c3ccc(C(F)(F)F)cc3)c2n1 [ZDR180, N-(2-(((2-(Methylsulfonamido)ethyl)amino)methyl)quinolin-8-yl)-4-(trifluoromethyl)benzenesulfonamide]
24 | > 256 | 0.5 (≈ 0.886 µM) | 64 (≈ 113 µM) | > 256 | 64 (≈ 113 µM) | > 256 | O=S(=O)(NCCNCc1ccc2cccc(NS(=O)(=O)c3ccc(C(F)(F)F)cc3)c2n1)c1ccccc1 [ZDR181, N-(2-(((2-(Phenylsulfonamido)ethyl)amino)methyl)quinolin-8-yl)-4-(trifluoromethyl)benzenesulfonamide]
